Laboratory results as given in patent publication US20050208496A1, “Methods of testing for bronchial asthma or chronic obstructive pulmonary disease” (Genox Research, Inc., priority 2002, published 2005).

Test system: respiratory epithelial cells
Settings: lot 1, Day 7, AI method

IL-13: human IL-13 (Peprotech, Inc.) added to the medium at 50 ng/mL to stimulate respiratory epithelial cells
AI700705 (46658_at) expression fold change: 2.4 fold | AI809925 (53010_at) expression fold change: 3.6 fold | AI821796 (57694_at) expression fold change: 3 fold | AI989346 (52327_s_at) expression fold change: 2.7 fold | AKAP2 (48035_at) expression fold change: 4.4 fold | AKAP10 (36632_at) expression, fold change upon IL-13 stimulation: 2 fold | ALOX15 (34636_at) expression, fold change upon IL-13 stimulation: 72.3 fold | ARHE (35803_at) expression fold change upon IL-13 stimulation: 2.3 fold | ARL7 (57151_at) expression fold change: 3.1 fold | AW019985 (48826_s_at) expression fold change: 6.9 fold | AXL (38433_at) expression, fold change upon IL-13 stimulation: 2.2 fold | BIG2 (34484_at) expression, fold change upon IL-13 stimulation: 2.2 fold | BST2 (39061_at) expression, fold change upon IL-13 stimulation: 3 fold | C1S (40496_at) expression, fold change upon IL-13 stimulation: 4.8 fold | C21orf11 (58957_at) expression fold change: 2.1 fold | CCND3 (1795_g_at) expression fold change upon IL-13 stimulation: 2.1 fold | CDH6 (57421_at) expression fold change: 3.8 fold | CDH26 (46916_at) expression fold change: 8.6 fold | CH25H (32363_at) expression, fold change upon IL-13 stimulation: 15.1 fold | CLDN5 (38995_at) expression, fold change upon IL-13 stimulation: 2.9 fold | CTSC (133_at) expression, fold change upon IL-13 stimulation: 2.8 fold | CXCL16 (44095_at) expression fold change: 4 fold | DBCCR1 (40292_at) expression, fold change upon IL-13 stimulation: 3.1 fold | DD96 (31610_at) expression, fold change upon IL-13 stimulation: 3.3 fold | DDIT3 (39420_at) expression, fold change upon IL-13 stimulation: 5.2 fold | DKFZP564O0823 (41402_at) expression, fold change upon IL-13 stimulation: 3.9 fold | DKFZP566J091 (57197_at) expression fold change: 11.3 fold | DNAJA1 (276_at) expression fold change upon IL-13 stimulation: 2.5 fold | DPP4 (34823_at) expression fold change upon IL-13 stimulation: 3.2 fold | DPYD (38220_at) expression fold change upon IL-13 stimulation: 2.5 fold | EMILIN-2 (51628_at) expression fold change: 3.1 fold | FADS3 (43394_s_at) expression fold change: 4.5 fold | FETUB (32620_at) expression fold change: 8.4 fold | FETUB (33101_g_at) expression fold change: 9 fold | FLJ10261 (43366_at) expression fold change: 10.6 fold | FLJ10261 (43963_at) expression fold change: 8.7 fold | FLJ14281 (50209_at) expression fold change: 2.5 fold | FLJ20420 (46233_at) expression fold change: 2.1 fold | FLJ22332 (56959_at) expression fold change: 3.4 fold | G1P3 (1358_s_at) expression, fold change upon IL-13 stimulation: 2.5 fold | GADD45G (39154_at) expression fold change upon IL-13 stimulation: 4.3 fold | H11 (56474_at) expression fold change: 2.3 fold | HLA-F (37420_i_at) expression, fold change upon IL-13 stimulation: 3.3 fold | HLA-F (37421_f_at) expression, fold change upon IL-13 stimulation: 2.4 fold | HLA-F (49203_f_at) expression fold change: 3.4 fold | HLALS (34427_g_at) expression, fold change upon IL-13 stimulation: 2 fold | HS3ST1 (41556_s_at) expression fold change upon IL-13 stimulation: 3.8 fold | HSD17B2 (38178_at) expression fold change upon IL-13 stimulation: 3.1 fold | HSPA5 (47634_at) expression fold change: 2.7 fold | HUMRTVLH3 (34702_f_at) expression, fold change upon IL-13 stimulation: 6.1 fold | Human hbc647 mRNA sequence (34759_at) expression, fold change upon IL-13 stimulation: 2.5 fold | ICAMt (32640_at) expression fold change upon IL-13 stimulation: 3.1 fold | IFI27 (425_at) expression, fold change upon IL-13 stimulation: 2.1 fold | IFI30 (39728_at) expression, fold change upon IL-13 stimulation: 2.1 fold | IFIT4 (38584_at) expression, fold change upon IL-13 stimulation: 4.6 fold | IL13RA2 (1016_s_at) expression fold change upon IL-13 stimulation: 4.8 fold | IRLB (32961_at) expression fold change: 2.5 fold | ISG15 (1107_s_at) expression, fold change upon IL-13 stimulation: 3 fold | KIAA0469 (37230_at) expression, fold change upon IL-13 stimulation: 2 fold | KIAA0537 (33787_at) expression, fold change upon IL-13 stimulation: 8.8 fold | KIAA1199 (36070_at) expression, fold change upon IL-13 stimulation: 4.3 fold | KRT16 (601_s_at) expression fold change: 3.6 fold | LOC57118 (51085_at) expression fold change: 2.2 fold | LOC64116 (40456_at) expression, fold change upon IL-13 stimulation: 2.8 fold | LRPAP1 (36194_at) expression, fold change upon IL-13 stimulation: 2.2 fold | MAT2A (32571_at) expression fold change upon IL-13 stimulation: 2.5 fold | MDA5 (51920_at) expression fold change: 3.8 fold | MED6 (35432_at) expression fold change: 2.7 fold | MET (1609_g_at) expression, fold change upon IL-13 stimulation: 2.6 fold | MET (1812_s_at) expression, fold change upon IL-13 stimulation: 5 fold | MET (35684_at) expression, fold change upon IL-13 stimulation: 3.4 fold | MFHAS1 (50388_at) expression fold change: 2.3 fold | MICB (35937_at) expression, fold change upon IL-13 stimulation: 3.5 fold | MKP-L (38272_at) expression, fold change upon IL-13 stimulation: 2.9 fold | MMP7 (668_s_at) expression, fold change upon IL-13 stimulation: 2.8 fold | MP1 (34839_at) expression, fold change upon IL-13 stimulation: 2 fold | MXI (37014_at) expression fold change: 2.9 fold | NCF2 (41038_at) expression fold change: 4 fold | NFIL3 (37544_at) expression fold change: 2.5 fold | NK4 (39119_s_at) expression fold change upon IL-13 stimulation: 6 fold | NOS2A (1948_f_at) expression fold change upon IL-13 stimulation: 9.4 fold | NOS2A (48918_at) expression fold change: 8.3 fold | NTRK1 (36805_s_at) expression, fold change upon IL-13 stimulation: 8.7 fold | OAF (39695_at) expression, fold change upon IL-13 stimulation: 4.3 fold | OAS1 (38389_at) expression fold change upon IL-13 stimulation: 2.4 fold | OSF-2 (1451_s_at) expression fold change upon IL-13 stimulation: 25.4 fold | PAK2 (1560_g_at) expression, fold change upon IL-13 stimulation: 2.4 fold | PITPNB (353_at) expression, fold change upon IL-13 stimulation: 2.8 fold | PITPNB (35017_f_at) expression, fold change upon IL-13 stimulation: 2.3 fold | PKD2 (38120_at) expression, fold change upon IL-13 stimulation: 2.7 fold | PLS1 (39951_at) expression fold change: 5.4 fold | PMCH (32005_at) expression fold change: 11 fold | PSMB9 (38287_at) expression fold change upon IL-13 stimulation: 2.6 fold | PVRL2 (50320_g_at) expression fold change: 2.2 fold | RASGRP1 (33291_at) expression fold change: 2.8 fold | RIG-1 (59215_at) expression fold change: 2.8 fold | SECTM1 (41045_at) expression, fold change upon IL-13 stimulation: 4.4 fold | SERPINB2 (37185_at) expression fold change: 5.3 fold | SERPINB4 (1549_s_at) expression fold change: 7.8 fold | SERPINB6 (34789_at) expression fold change: 2 fold | SIAT1 (41352_at) expression fold change upon IL-13 stimulation: 8.7 fold | SLC26A4, pendrin (36376_at) expression fold change: 20.1 fold | SPHK1 (51923_at) expression fold change: 2.1 fold | SSI-1 (41592_at) expression, fold change upon IL-13 stimulation: 6.1 fold | STAT1 (32859_at) expression fold change: 2.1 fold | TGFB2 (1262_s_at) expression fold change upon IL-13 stimulation: 3.2 fold
